{"source": "PubChem BioAssay AID328", "about": "(DTP/NCI, 2004)", "tested_on": "BDF1 mice, P388 leukemia ip, median survival T/C", "assay": "NCI In Vivo Anticancer Drug Screen. Data for tumor model P388 Leukemia (intraperitoneal) in B6D2F1 (BDF1) mice", "settings": "endpoint: median survival time, higher = longer survival", "outline": "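Vehicle-dosed animals serve as the reference; survival of compound-dosed, tumour-implanted mice is divided by it.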", "key": {"[1]": {"settings": "dose: 12.5 mg/kg/injection, schedule: Q01DX009 (ip), vehicle: saline with Tween-80"}, "[2]": {"settings": "dose: 25.0 mg/kg/injection, schedule: Q01DX009 (ip), vehicle: saline with Tween-80"}, "[3]": {"settings": "dose: 50.0 mg/kg/injection, schedule: Q01DX009 (ip), vehicle: saline with Tween-80"}, "[4]": {"settings": "dose: 100.0 mg/kg/injection, schedule: Q01DX009 (ip), vehicle: saline with Tween-80"}, "[5]": {"settings": "dose: 12.5 mg/kg/injection, schedule: Q01DX009 (ip), vehicle: Klucel (hydroxypropylcellulose) (HPC)"}, "[6]": {"settings": "dose: 25.0 mg/kg/injection, schedule: Q01DX009 (ip), vehicle: Klucel (hydroxypropylcellulose) (HPC)"}, "[7]": {"settings": "dose: 100.0 mg/kg/injection, schedule: Q04DX003 (ip), vehicle: saline"}, "[8]": {"settings": "dose: 200.0 mg/kg/injection, schedule: Q01DX009 (ip), vehicle: saline with Tween-80"}, "[9]": {"settings": "dose: 200.0 mg/kg/injection, schedule: Q04DX003 (ip), vehicle: saline"}}, "note": "Values joined by “and” are separate entries in the source; they are usually repeats but may differ in a detail not shown here. Identical values can stand only once. Toxic doses and inconclusive results are not listed."}
{"smiles": "O=C(/C(=C\\c1ccccc1)CBr)c1ccc(Br)cc1", "values": [{"measurement": "T/C", "setting": "dose: 3.12 mg/kg/injection, schedule: Q01DX009 (ip), vehicle: saline", "result": "115 % of control"}, {"measurement": "T/C", "setting": "dose: 6.25 mg/kg/injection, schedule: Q01DX009 (ip), vehicle: saline", "result": "115 % of control"}, {"measurement": "T/C", "setting": "dose: 12.5 mg/kg/injection, schedule: Q01DX009 (ip), vehicle: saline", "result": "110 % of control"}]}
{"smiles": "CN(C)c1ccc([N+](=O)[O-])cn1", "values": [{"measurement": "T/C", "setting": "[1]", "result": "95 % of control"}, {"measurement": "T/C", "setting": "[2]", "result": "102 % of control"}, {"measurement": "T/C", "setting": "[3]", "result": "98 % of control"}, {"measurement": "T/C", "setting": "[4]", "result": "98 % of control"}]}
{"smiles": "COC(=O)C1=COC2OC3CC1C2C(C)O3", "note": "(stereo unspecified)", "values": [{"measurement": "T/C", "setting": "[5]", "result": "99 % of control"}, {"measurement": "T/C", "setting": "[6]", "result": "98 % of control"}, {"measurement": "T/C", "setting": "dose: 50.0 mg/kg/injection, schedule: Q01DX009 (ip), vehicle: Klucel (hydroxypropylcellulose) (HPC)", "result": "115 % of control"}]}
{"smiles": "Cn1cnc([N+](=O)[O-])c1Cl", "values": [{"measurement": "T/C", "setting": "[2]", "result": "101 % of control"}, {"measurement": "T/C", "setting": "dose: 50.0 mg/kg/injection, schedule: Q01DX005 (ip), vehicle: saline", "result": "95 % of control"}, {"measurement": "T/C", "setting": "[3]", "result": "92 % of control"}, {"measurement": "T/C", "setting": "dose: 100.0 mg/kg/injection, schedule: Q01DX005 (ip), vehicle: saline", "result": "104 % of control"}, {"measurement": "T/C", "setting": "[4]", "result": "106 % of control"}, {"measurement": "T/C", "setting": "[7]", "result": "100 % of control"}, {"measurement": "T/C", "setting": "[8]", "result": "101 % of control"}, {"measurement": "T/C", "setting": "[9]", "result": "105 % of control"}]}
{"smiles": "COCn1cnc2c(F)ncnc21", "values": [{"measurement": "T/C", "setting": "dose: 6.25 mg/kg/injection, schedule: Q01DX009 (ip), vehicle: Klucel (hydroxypropylcellulose) (HPC)", "result": "86 % of control"}, {"measurement": "T/C", "setting": "dose: 6.25 mg/kg/injection, schedule: Q04DX003 (ip), vehicle: saline", "result": "95 % of control"}, {"measurement": "T/C", "setting": "[5]", "result": "90 % of control"}, {"measurement": "T/C", "setting": "dose: 12.5 mg/kg/injection, schedule: Q04DX003 (ip), vehicle: saline", "result": "109 % of control"}, {"measurement": "T/C", "setting": "[6]", "result": "86 % of control"}, {"measurement": "T/C", "setting": "dose: 25.0 mg/kg/injection, schedule: Q04DX003 (ip), vehicle: saline", "result": "100 % of control"}]}
{"smiles": "Cc1cc(C)nc(NC(N)=NCCc2ccccc2)n1", "values": [{"measurement": "T/C", "setting": "[1]", "result": "100 % of control"}, {"measurement": "T/C", "setting": "[2]", "result": "95 % of control"}, {"measurement": "T/C", "setting": "[3]", "result": "100 % of control"}]}
{"smiles": "CCOCCC(=O)O", "values": [{"measurement": "T/C", "setting": "[7]", "result": "104 % of control"}, {"measurement": "T/C", "setting": "[9]", "result": "109 % of control"}, {"measurement": "T/C", "setting": "dose: 400.0 mg/kg/injection, schedule: Q04DX003 (ip), vehicle: saline", "result": "90 % of control"}]}
{"smiles": "CNC(C)(C)C(SS)c1ccc(Cl)cc1", "note": "(stereo unspecified)", "values": [{"measurement": "T/C", "setting": "dose: 6.25 mg/kg/injection, schedule: Q01DX009 (ip), vehicle: saline with Tween-80", "result": "110 % of control"}, {"measurement": "T/C", "setting": "[1]", "result": "118 % of control"}, {"measurement": "T/C", "setting": "[2]", "result": "105 % of control and 121 % of control"}, {"measurement": "T/C", "setting": "dose: 25.0 mg/kg/injection, schedule: Q04DX003 (ip), vehicle: saline with Tween-80", "result": "101 % of control"}, {"measurement": "T/C", "setting": "[3]", "result": "96 % of control and 110 % of control"}, {"measurement": "T/C", "setting": "dose: 50.0 mg/kg/injection, schedule: Q04DX003 (ip), vehicle: saline with Tween-80", "result": "99 % of control"}]}
{"smiles": "CCCCCCCCCCSS(=O)(=O)O", "values": [{"measurement": "T/C", "setting": "dose: 25.0 mg/kg/injection, schedule: Q01DX001 (ip), vehicle: other", "result": "87 % of control"}, {"measurement": "T/C", "setting": "dose: 50.0 mg/kg/injection, schedule: Q01DX001 (ip), vehicle: other", "result": "95 % of control"}, {"measurement": "T/C", "setting": "dose: 100.0 mg/kg/injection, schedule: Q01DX001 (ip), vehicle: other", "result": "95 % of control"}]}
{"smiles": "COc1ccc(C2(C(=O)O)CC2)cc1", "values": [{"measurement": "T/C", "setting": "[4]", "result": "111 % of control"}, {"measurement": "T/C", "setting": "dose: 100.0 mg/kg/injection, schedule: Q04DX003 (ip), vehicle: saline with Tween-80", "result": "109 % of control"}, {"measurement": "T/C", "setting": "[8]", "result": "100 % of control"}, {"measurement": "T/C", "setting": "dose: 200.0 mg/kg/injection, schedule: Q04DX003 (ip), vehicle: saline with Tween-80", "result": "109 % of control"}, {"measurement": "T/C", "setting": "dose: 400.0 mg/kg/injection, schedule: Q01DX009 (ip), vehicle: saline with Tween-80", "result": "96 % of control"}, {"measurement": "T/C", "setting": "dose: 400.0 mg/kg/injection, schedule: Q04DX003 (ip), vehicle: saline with Tween-80", "result": "113 % of control"}]}
{"smiles": "COc1cc(CC#N)ccc1C", "values": [{"measurement": "T/C", "setting": "[6]", "result": "92 % of control"}]}
{"smiles": "NC(Cc1c[nH]c2ccc(N(CCCl)CCCl)cc12)C(=O)O", "note": "(stereo unspecified)", "values": [{"measurement": "T/C", "setting": "dose: 0.5 mg/kg/injection, schedule: Q01DX010 (ip), vehicle: saline", "result": "218 % of control"}, {"measurement": "T/C", "setting": "dose: 1.0 mg/kg/injection, schedule: Q01DX010 (ip), vehicle: saline", "result": "290 % of control"}]}
{"smiles": "CCCCN=C(N)c1ccc(NC(=O)c2ccc(C(=O)Nc3ccc(C(N)=NCCCC)cc3)cc2)cc1", "values": [{"measurement": "T/C", "setting": "dose: 15.0 mg/kg/injection, schedule: Q04DX003 (ip), vehicle: saline with Tween-80", "result": "122 % of control"}, {"measurement": "T/C", "setting": "dose: 26.0 mg/kg/injection, schedule: Q04DX003 (ip), vehicle: saline with Tween-80", "result": "154 % of control"}, {"measurement": "T/C", "setting": "dose: 30.0 mg/kg/injection, schedule: Q01DX009 (ip), vehicle: saline with Tween-80", "result": "196 % of control"}, {"measurement": "T/C", "setting": "dose: 30.0 mg/kg/injection, schedule: Q04DX003 (ip), vehicle: saline with Tween-80", "result": "158 % of control and 181 % of control"}, {"measurement": "T/C", "setting": "dose: 40.0 mg/kg/injection, schedule: Q04DX003 (ip), vehicle: saline with Tween-80", "result": "166 % of control and 181 % of control"}, {"measurement": "T/C", "setting": "dose: 45.0 mg/kg/injection, schedule: Q04DX003 (ip), vehicle: saline with Tween-80", "result": "179 % of control"}, {"measurement": "T/C", "setting": "dose: 60.0 mg/kg/injection, schedule: Q04DX003 (ip), vehicle: saline with Tween-80", "result": "163 % of control and 183 % of control and 186 % of control"}, {"measurement": "T/C", "setting": "dose: 90.0 mg/kg/injection, schedule: Q04DX003 (ip), vehicle: saline with Tween-80", "result": "204 % of control"}]}
